Biological target: N-type calcium channel subunits (α1B, α2δ, and β3a) (Homo sapiens, UniProt Q00975)
Assay: Block of Cav2.2 channel, whole cell voltage clamp, manual and PatchXpress
Format: cell-based
Settings: Table 5; table follows Assay Example 3 (whole cell voltage clamp / PatchXpress); assay not given
Description: Cells are grown either on poly-D-lysine coated coverglass (manual EP) or in TIS culture plates (PatchXpress). For the PatchExpress, cells are released from the flask using trypsin. In both cases, the […] solution is (in mM): 130 […], 10 EGTA, 10 HEPES, 2 MgCl2, 3 MgATP, pH 7.3 with CsOH.
Microelectrodes are fabricated from borosilicate glass and fire-polished. […] The reference electrode is a silver-silver chloride pellet. Voltages are not corrected for the liquid junction potential between the internal and external solutions and leak is subtracted using the P/n procedure. Solutions are applied to cells by bath perfusion via gravity. The experimental chamber volume is—0.2 mL. and the perfusion rate is 0.5-2 mL/min. Flow of suction through the chamber is maintained at all times. Measurement of current amplitudes is performed with […] software (HEKA Elektronik).
PatchXpress (Molecular Devices) is a 16-well whole-cell automated patch clamp device that operates asynchronously with fully integrated fluidics. […] Capacitance and series resistance compensation is automated. No correction for liquid junction potentials is employed. Leak is subtracted using the P/n procedure. Compounds are added to cells with a pipettor from a 96-well compound plate. Voltage protocols and the recording of membrane currents are performed using the PatchXpress software/hardware system. Current amplitudes are calculated with DataXpress software.
In both manual and automated patch clamp, cells are voltage clamped at […] or −90 m V and 50 ms pulses to +20 mV are applied every 15 sec (0.067 Hz). Compounds are added in escalating doses to measure % inhibition. Percent inhibition is calculated from the ratio of the curerent amplitude in the presence and absence of compound. When multiple doses are achieved per cell, IC50 values are calculated.

Sequence of N-type calcium channel subunits (α1B, α2δ, and β3a) (Q00975 whole entry): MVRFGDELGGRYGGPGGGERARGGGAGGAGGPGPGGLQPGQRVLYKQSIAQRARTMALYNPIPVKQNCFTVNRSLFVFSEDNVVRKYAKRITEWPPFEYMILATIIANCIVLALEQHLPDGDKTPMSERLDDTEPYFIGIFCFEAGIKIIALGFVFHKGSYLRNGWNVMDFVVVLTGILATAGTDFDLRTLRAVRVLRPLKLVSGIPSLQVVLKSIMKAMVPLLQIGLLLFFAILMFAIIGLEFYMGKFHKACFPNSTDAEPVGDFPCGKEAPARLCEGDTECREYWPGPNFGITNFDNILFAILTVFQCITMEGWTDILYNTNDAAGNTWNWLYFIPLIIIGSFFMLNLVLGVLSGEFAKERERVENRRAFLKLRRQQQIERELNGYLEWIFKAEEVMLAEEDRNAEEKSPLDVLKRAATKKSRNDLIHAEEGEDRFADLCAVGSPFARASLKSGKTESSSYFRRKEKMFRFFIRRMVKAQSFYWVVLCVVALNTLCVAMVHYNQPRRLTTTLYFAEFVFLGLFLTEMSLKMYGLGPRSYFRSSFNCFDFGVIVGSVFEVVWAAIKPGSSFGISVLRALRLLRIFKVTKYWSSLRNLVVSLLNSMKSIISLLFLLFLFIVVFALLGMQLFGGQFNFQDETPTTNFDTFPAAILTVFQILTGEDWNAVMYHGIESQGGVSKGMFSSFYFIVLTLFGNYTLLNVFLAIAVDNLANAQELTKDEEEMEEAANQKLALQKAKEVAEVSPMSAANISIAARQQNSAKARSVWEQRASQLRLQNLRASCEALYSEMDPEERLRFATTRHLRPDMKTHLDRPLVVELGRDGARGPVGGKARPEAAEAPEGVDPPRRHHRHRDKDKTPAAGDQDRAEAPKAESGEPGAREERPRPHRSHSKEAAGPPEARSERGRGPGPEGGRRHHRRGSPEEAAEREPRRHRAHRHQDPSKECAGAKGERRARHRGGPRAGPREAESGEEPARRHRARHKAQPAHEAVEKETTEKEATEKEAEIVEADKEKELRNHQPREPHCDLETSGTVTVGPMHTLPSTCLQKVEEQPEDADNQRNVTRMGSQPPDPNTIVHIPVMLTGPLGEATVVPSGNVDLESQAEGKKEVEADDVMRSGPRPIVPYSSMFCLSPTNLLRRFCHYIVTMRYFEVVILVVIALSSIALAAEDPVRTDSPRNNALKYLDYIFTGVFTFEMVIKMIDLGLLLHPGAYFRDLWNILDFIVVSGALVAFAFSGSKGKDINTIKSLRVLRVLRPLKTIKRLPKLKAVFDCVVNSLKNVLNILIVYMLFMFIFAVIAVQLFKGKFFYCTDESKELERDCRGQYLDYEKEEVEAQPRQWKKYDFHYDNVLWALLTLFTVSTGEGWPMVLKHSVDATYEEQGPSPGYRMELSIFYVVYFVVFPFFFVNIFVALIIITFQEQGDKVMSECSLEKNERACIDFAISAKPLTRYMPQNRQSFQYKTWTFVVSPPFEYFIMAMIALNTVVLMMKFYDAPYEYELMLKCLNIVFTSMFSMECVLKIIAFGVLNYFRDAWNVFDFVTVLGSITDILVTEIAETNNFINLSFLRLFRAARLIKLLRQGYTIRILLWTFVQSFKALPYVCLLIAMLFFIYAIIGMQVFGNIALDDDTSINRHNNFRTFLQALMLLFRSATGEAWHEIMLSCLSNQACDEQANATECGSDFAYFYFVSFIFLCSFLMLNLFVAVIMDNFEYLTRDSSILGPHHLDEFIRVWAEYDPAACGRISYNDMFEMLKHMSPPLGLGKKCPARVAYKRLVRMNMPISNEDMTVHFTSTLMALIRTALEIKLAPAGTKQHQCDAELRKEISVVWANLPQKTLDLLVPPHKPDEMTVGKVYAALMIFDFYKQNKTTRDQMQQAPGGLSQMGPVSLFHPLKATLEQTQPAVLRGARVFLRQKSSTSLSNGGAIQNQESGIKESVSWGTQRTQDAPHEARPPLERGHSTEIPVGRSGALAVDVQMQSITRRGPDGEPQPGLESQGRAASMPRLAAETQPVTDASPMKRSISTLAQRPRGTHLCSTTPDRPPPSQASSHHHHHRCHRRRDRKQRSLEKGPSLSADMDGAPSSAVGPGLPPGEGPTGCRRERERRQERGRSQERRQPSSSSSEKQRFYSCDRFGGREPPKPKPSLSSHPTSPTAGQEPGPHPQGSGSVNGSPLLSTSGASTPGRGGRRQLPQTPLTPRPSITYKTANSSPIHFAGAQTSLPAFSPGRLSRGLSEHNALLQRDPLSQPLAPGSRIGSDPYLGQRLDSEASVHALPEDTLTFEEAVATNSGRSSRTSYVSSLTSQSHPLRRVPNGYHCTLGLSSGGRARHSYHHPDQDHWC
Sequence of N-type calcium channel subunits (α1B, α2δ, and β3a) (P54289 25-1103 partner): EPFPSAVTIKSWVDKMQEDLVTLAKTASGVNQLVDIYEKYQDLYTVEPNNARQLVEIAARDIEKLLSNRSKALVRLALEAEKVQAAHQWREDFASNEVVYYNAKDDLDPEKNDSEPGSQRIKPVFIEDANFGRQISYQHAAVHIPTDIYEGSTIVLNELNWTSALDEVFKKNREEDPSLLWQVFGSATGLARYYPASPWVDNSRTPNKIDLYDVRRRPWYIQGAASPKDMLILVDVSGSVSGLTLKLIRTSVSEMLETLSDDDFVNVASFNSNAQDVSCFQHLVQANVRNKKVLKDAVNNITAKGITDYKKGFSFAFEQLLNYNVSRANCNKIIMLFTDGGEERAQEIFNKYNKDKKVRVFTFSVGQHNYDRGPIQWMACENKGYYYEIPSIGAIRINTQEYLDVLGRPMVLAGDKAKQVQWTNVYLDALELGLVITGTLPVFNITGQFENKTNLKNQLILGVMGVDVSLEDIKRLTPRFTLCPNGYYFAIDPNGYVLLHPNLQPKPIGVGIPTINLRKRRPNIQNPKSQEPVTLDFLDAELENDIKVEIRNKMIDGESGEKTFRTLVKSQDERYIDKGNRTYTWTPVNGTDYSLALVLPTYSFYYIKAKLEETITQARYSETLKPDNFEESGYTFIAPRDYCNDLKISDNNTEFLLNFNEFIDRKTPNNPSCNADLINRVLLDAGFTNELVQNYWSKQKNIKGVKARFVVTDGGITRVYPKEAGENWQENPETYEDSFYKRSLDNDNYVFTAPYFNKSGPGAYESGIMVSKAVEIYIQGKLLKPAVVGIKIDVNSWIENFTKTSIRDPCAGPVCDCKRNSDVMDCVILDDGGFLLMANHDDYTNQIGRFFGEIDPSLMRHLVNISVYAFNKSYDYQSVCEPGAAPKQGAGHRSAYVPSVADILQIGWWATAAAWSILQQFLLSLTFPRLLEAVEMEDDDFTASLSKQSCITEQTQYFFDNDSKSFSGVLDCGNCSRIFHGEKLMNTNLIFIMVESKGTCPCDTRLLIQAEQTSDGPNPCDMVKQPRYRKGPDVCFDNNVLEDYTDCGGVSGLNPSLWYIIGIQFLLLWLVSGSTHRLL
Sequence of N-type calcium channel subunits (α1B, α2δ, and β3a) (P54284 whole entry partner): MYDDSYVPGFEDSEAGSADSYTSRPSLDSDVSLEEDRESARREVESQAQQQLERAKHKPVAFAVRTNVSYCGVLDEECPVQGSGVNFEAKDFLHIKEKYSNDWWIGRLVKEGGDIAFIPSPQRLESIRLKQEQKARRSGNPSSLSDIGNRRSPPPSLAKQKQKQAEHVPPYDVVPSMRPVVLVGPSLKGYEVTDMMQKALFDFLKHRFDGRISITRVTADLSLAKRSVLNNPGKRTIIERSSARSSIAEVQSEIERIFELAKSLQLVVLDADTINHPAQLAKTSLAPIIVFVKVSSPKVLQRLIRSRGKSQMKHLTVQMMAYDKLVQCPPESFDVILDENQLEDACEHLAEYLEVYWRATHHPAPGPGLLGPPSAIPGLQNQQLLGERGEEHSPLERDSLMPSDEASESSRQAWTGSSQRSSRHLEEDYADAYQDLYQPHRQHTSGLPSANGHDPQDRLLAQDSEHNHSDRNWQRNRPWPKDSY

In the case of `O=C(CN[C@H]1C[C@H](S(=O)(=O)c2cccc(C(F)(F)F)c2)C1)N1CCC(C(F)(F)F)CC1` [Compound 214, 2-(trans-3-(3-(trifluoromethyl)phenylsulfonyl)cyclobutylamino)-1-(4-(trifluoromethyl)piperidin-1-yl)ethanone], the IC50 is reported as 2090 nM.
`CC(C)(C)NC(=O)CN[C@H]1C[C@H](S(=O)(=O)c2cccc(C(F)(F)F)c2)C1` [Compound 215, N-tert-butyl-2-(trans-3-(3-(trifluoromethyl)phenylsulfonyl)cyclobutylamino)acetamide] gave an IC50 of 2810 nM.
For `O=C(CN[C@H]1C[C@H](S(=O)(=O)c2cccc(C(F)(F)F)c2)C1)NC1CCCCC1` [Compound 216, N-cyclohexyl-2-(trans-3-(3-(trifluoromethyl)phenylsulfonyl)cyclobutylamino)acetamide], the IC50 was 1010 nM.
Compound `O=C(N[C@H]1C[C@H](S(=O)(=O)c2cccc(C(F)(F)F)c2)C1)c1cc(F)cc(Cl)c1` [Compound 220, 3-chloro-5-fluoro-N-(trans-3-(3-(trifluoromethyl)phenylsulfonyl)cyclobutyl)benzamide] has an IC50 of 3350 nM.
Compound `COc1cc(F)cc(C(=O)N[C@H]2C[C@H](S(=O)(=O)c3cccc(C(F)(F)F)c3)C2)c1` [Compound 222, 3-fluoro-5-methoxy-N-(trans-3-(3-(trifluoromethyl)phenylsulfonyl)cyclobutyl)benzamide] has an IC50 of 2960 nM.
In the case of `O=C(N[C@H]1C[C@H](S(=O)(=O)c2cccc(C(F)(F)F)c2)C1)c1ccc(F)c(C(F)(F)F)c1` [Compound 224, 4-fluoro-3-(trifluoromethyl)-N-(trans-3-(3-(trifluoromethyl)phenylsulfonyl)cyclobutyl)benzamide], the IC50 is reported as 1500 nM.
`O=C(N[C@H]1C[C@H](S(=O)(=O)c2cccc(C(F)(F)F)c2)C1)c1ccc(F)c(Cl)c1` [Compound 225, 3-chloro-4-fluoro-N-(trans-3-(3-(trifluoromethyl)phenylsulfonyl)cyclobutyl)benzamide] was tested, and the IC50 was 2350 nM.
With `Cn1nc(C(F)(F)F)cc1C(=O)N[C@H]1C[C@H](S(=O)(=O)c2cccc(C(F)(F)F)c2)C1` [Compound 226, 1-methyl-3-(trifluoromethyl)-N-(trans-3-(3-(trifluoromethyl)phenylsulfonyl)cyclobutyl)-1H-pyrazole-5-carboxamide] the IC50 was 2150 nM.
In the case of `COc1cc(F)cc(C(=O)NC[C@]2(O)CC[C@@H](S(=O)(=O)c3cccc(C(F)(F)F)c3)CC2)c1` [Compound 229, 3-fluoro-N-(((1S,4S)-1-hydroxy-4-(3-(trifluoromethyl)phenylsulfonyl)cyclohexyl)methyl)-5-methoxybenzamide], the IC50 is reported as 1020 nM.
With `Cn1nc(C(F)(F)F)cc1C(=O)NC[C@]1(O)CC[C@@H](S(=O)(=O)c2cccc(C(F)(F)F)c2)CC1` [Compound 231, N-(((1S,4S)-1-hydroxy-4-(3-(trifluoromethyl)phenylsulfonyl)cyclohexyl)methyl)-1-methyl-3-(trifluoromethyl)-1H-pyrazole-5-carboxamide] the IC50 was 1870 nM.
For `O=C(NC[C@]1(O)CC[C@@H](S(=O)(=O)c2cccc(C(F)(F)F)c2)CC1)c1ccc(C(F)(F)F)cn1` [Compound 232, N-(((1S,4S)-1-hydroxy-4-(3-(trifluoromethyl)phenylsulfonyl)cyclohexyl)methyl)-5-(trifluoromethyl)picolinamide], the IC50 was 2660 nM.
With `CS(=O)(=O)c1cc(C(F)(F)F)ccc1C(=O)NC[C@]1(O)CC[C@@H](S(=O)(=O)c2cccc(C(F)(F)F)c2)CC1` [Compound 233, N-(((1S,4S)-1-hydroxy-4-(3-(trifluoromethyl)phenylsulfonyl)cyclohexyl)methyl)-2-(methylsulfonyl)-4-(trifluoromethyl)benzamide] the IC50 was 3570 nM.
In the case of `O=C(NC[C@]1(O)CC[C@@H](S(=O)(=O)c2cccc(C(F)(F)F)c2)CC1)c1ccc(C(F)(F)F)nc1` [Compound 235, N-(((1S,4S)-1-hydroxy-4-(3-(trifluoromethyl)phenylsulfonyl)cyclohexyl)methyl)-6-(trifluoromethyl)nicotinamide], the IC50 is reported as 5940 nM.
In the case of `COc1cc(C(=O)NC[C@]2(O)CC[C@@H](S(=O)(=O)c3cccc(C(F)(F)F)c3)CC2)cc(Cl)n1` [Compound 236, 2-chloro-N-(((1S,4S)-1-hydroxy-4-(3-(trifluoromethyl)phenylsulfonyl)cyclohexyl)methyl)-6-methoxyisonicotinamide], the IC50 is reported as 2100 nM.
Work on `O=C(NC[C@]1(O)CC[C@@H](S(=O)(=O)c2cccc(C(F)(F)F)c2)CC1)c1cc(C(F)(F)F)ccn1` [Compound 237, N-(((1S,4S)-1-hydroxy-4-(3-(trifluoromethyl)phenylsulfonyl)cyclohexyl)methyl)-4-(trifluoromethyl)picolinamide] yielded an IC50 of 4560 nM.
`O=C(N[C@H]1CC[C@@](F)(S(=O)(=O)c2cccc(C(F)(F)F)c2)CC1)c1ccc(O)c(C(F)(F)F)c1` [Compound 247, N-((1S,4S)-4-fluoro-4-(3-(trifluoromethyl)phenylsulfonyl)cyclohexyl)-4-hydroxy-3-(trifluoromethyl)benzamide] gave an IC50 of 1010 nM.
With `O=C1c2ccc(C(F)(F)F)cc2C(=O)N1C1CCC(F)(S(=O)(=O)c2cccc(C(F)(F)F)c2)CC1` [Compound 280, 2-((1S,4S)-4-fluoro-4-(3-(trifluoromethyl)phenylsulfonyl)cyclohexyl)-5-(trifluoromethyl)isoindoline-1,3-dione] the IC50 was > 10000 nM.
`O=C(N[C@H]1CC[C@@](F)(S(=O)(=O)c2cccc(C(F)(F)F)c2)CC1)C1CCCCN1` (stereo partly drawn) [Compound 283, N-((1S,4S)-4-fluoro-4-(3-(trifluorornethyl)phenylsulfonyl)cyclohexyl) piperidine-2-carboxamide] showed an IC50 of 580 nM.
Work on `N[C@@H]1CCCC[C@H]1C(=O)N[C@H]1CC[C@@](F)(S(=O)(=O)c2cccc(C(F)(F)F)c2)CC1` [Compound 284, (1R,2R)-2-amino-N-((1S,4S)-4-fluoro-4-(3-(trifluoromethyl)phenylsulfonyl)cyclohexyl) cyclohexanecarboxamide] yielded an IC50 of 1050 nM.
`CC1(NC(=O)c2ccnn2CC(F)(F)F)CCC(S(=O)(=O)c2cccc(C(F)(F)F)c2)CC1` (centres unmarked) [Compound 314, N-(1-methyl-4-(3-(trifluoromethyl)phenylsulfonyl)cyclohexyl)-1-(2,2,2-trifluoroethyl)-1Hpyrazole-5-carboxamide] gave an IC50 of 4920 nM.
Compound `COc1cc(F)cc(C(=O)NC[C@H]2C[C@H](S(=O)(=O)c3cccc(C(F)(F)F)c3)C2)c1` [Compound 375, 3-fluoro-5-methoxy-N-(((1R,3R)-3-(3-(trifluoromethyl)phenylsulfonyl)cyclobutyl)methyl)benzamide] has an IC50 of 260 nM.
Work on `O=C(NC[C@H]1C[C@H](S(=O)(=O)c2cccc(C(F)(F)F)c2)C1)c1ccc(OCC(F)(F)F)nc1` [Compound 376, 6-(2,2,2-trifluoroethoxy)-N-(((1R,3R)-3-(3-(trifluoromethyl)phenylsulfonyl)cyclobutyl)methyl)nicotinamide] yielded an IC50 of 540 nM.
In the case of `O=C(NC[C@H]1C[C@H](S(=O)(=O)c2cc(F)cc(C(F)(F)F)c2)C1)c1ccc(C(F)(F)F)cn1` [Compound 390, N-(((1R,3R)-3-(3-fluoro-5-(trifluoromethyl)phenylsulfonyl)cyclobutyl)methyl)-5-(trifluoromethyl) picolinamide], the IC50 is reported as 1630 nM.
Work on `O=C(NC[C@H]1C[C@H](S(=O)(=O)c2cc(F)cc(C(F)(F)F)c2)C1)c1ccc(F)c(Cl)c1` [Compound 391, 3-chloro-4-fluoro-N-(((1R,3R)-3-(3-fluoro-5-(trifluoromethyl)phenylsulfonyl)cyclobutyl)rnethyl)benzamide] yielded an IC50 of 730 nM.
Work on `O=C(NC[C@H]1C[C@H](S(=O)(=O)c2cc(F)cc(C(F)(F)F)c2)C1)c1cn2cc(C(F)(F)F)ccc2n1` [Compound 393, N-(((1R,3R)-3-(3-fluoro-5-(trifluoromethyl)phenylsulfonyl)cyclobutyl)methyl)-6-(trifluoromethyl) imidazo[1,2-a]pyridine-2-carboxamide] yielded an IC50 of 1070 nM.
`O=C(NC[C@H]1C[C@H](S(=O)(=O)c2cc(F)cc(C(F)(F)F)c2)C1)c1ccc(Cl)c(OC(F)(F)F)c1` [Compound 394, 4-chloro-N-(((1R,3R)-3-(3-fluoro-5-(trifluoromethyl)phenylsulfonyl)cyclobutyl)methyl)-3-(trifluoromethoxy)benzamide] gave an IC50 of 510 nM.
With `O=C(NC[C@H]1C[C@H](S(=O)(=O)c2cc(F)cc(C(F)(F)F)c2)C1)c1ccc(Cl)c(Cl)c1` [Compound 395, 3,4-dichloro-N-(((1R,3R)-3-(3-fluoro-5-(trifluoromethyl)phenylsulfonyl)cyclobutyl)methyl)benzamide] the IC50 was 750 nM.
Compound `O=C(NC[C@H]1C[C@H](S(=O)(=O)c2cc(F)cc(C(F)(F)F)c2)C1)c1cc(C(F)(F)F)ccn1` [Compound 397, N-(((1R,3R)-3-(3-fluoro-5-(trifluoromethyl)phenylsulfonyl)cyclobutyl)methyl)-4-(trifluoromethyl)picolinamide] has an IC50 of 910 nM.
For `O=C(NC[C@H]1C[C@H](S(=O)(=O)c2cc(F)cc(C(F)(F)F)c2)C1)c1ccc(OC(F)(F)F)cc1` [Compound 398, N-(((1R,3R)-3-(3-fluoro-5-(trifluoromethyl)phenylsulfonyl)cyclobutyl)methyl)-4-(trifluoromethoxy)benzamide], the IC50 was 740 nM.

Source: patent US20120245137A1 (Zalicus Pharmaceuticals Ltd., priority 2009, published 2012)
